# Experimental data: ChEMBL document CHEMBL4393707, “Synthesis and evaluation of new quinazolin-4(3H)-one derivatives as potent antibacterial agents against multidrug resistant Staphylococcus aureus and Mycobacterium tuberculosis” (Eur J Med Chem, 2019)
# Legend:
# Pseudomonas aeruginosa = test: Antibacterial activity against Pseudomonas aeruginosa ATCC 27853 incubated for 16 to 18 hrs by broth microdilution assay; format: functional
# Staphylococcus aureus [1] = test: Antibacterial activity against vancomycin-resistant Staphylococcus aureus VRS4 incubated for 16 to 18 hrs by broth microdilution assay; format: functional
# Staphylococcus aureus [2] = test: Synergistic antibacterial activity against Staphylococcus aureus ATCC 29213 assessed as sum of FIC for test compound in presence of gentamycin and FIC for gentamycin in presence of test compound incubated for 24 hrs by checkerboard titration assay; format: functional
# Staphylococcus aureus [3] = test: Antibacterial activity against methicillin-resistant Staphylococcus aureus NR10186 incubated for 16 to 18 hrs by broth microdilution assay; format: functional
# Staphylococcus aureus [4] = test: Antibacterial activity against methicillin-resistant Staphylococcus aureus NR10198 incubated for 16 to 18 hrs by broth microdilution assay; format: functional
# Staphylococcus aureus [5] = test: Potentiation of gentamycin-induced antibacterial activity against Staphylococcus aureus ATCC 29213 assessed as gentamycin MIC incubated for 24 hrs by checkerboard titration assay (reference value: 0.25 ug/ml); format: functional; details: ATCC 29213, 24 h
# Staphylococcus aureus [6] = test: Potentiation of gentamycin-induced antibacterial activity against Staphylococcus aureus ATCC 29213 assessed as FIC incubated for 24 hrs by checkerboard titration assay; format: functional
# Staphylococcus aureus [7] = test: Potentiation of linezolid-induced antibacterial activity against Staphylococcus aureus ATCC 29213 assessed as FIC incubated for 24 hrs by checkerboard titration assay; format: functional
# Staphylococcus aureus [8] = test: Potentiation of levofloxacin-induced antibacterial activity against Staphylococcus aureus ATCC 29213 assessed as levofloxacin MIC incubated for 24 hrs by checkerboard titration assay (reference value: 0.25 ug/ml); format: functional; details: ATCC 29213, 24 h
# Staphylococcus aureus [9] = test: Synergistic antibacterial activity against Staphylococcus aureus ATCC 29213 incubated for 24 hrs in presence of vancomycin by checkerboard titration assay; format: functional; details: ATCC 29213, 24 h
# Staphylococcus aureus [10] = test: Synergistic antibacterial activity against Staphylococcus aureus ATCC 29213 incubated for 24 hrs in presence of levofloxacin by checkerboard titration assay; format: functional; details: ATCC 29213, 24 h
# [11] = test system: Mycobacterium tuberculosis; test: Antitubercular activity against Mycobacterium tuberculosis H37Rv after 7 days by resazurin dye based assay; format: functional; details: 168 h
# Klebsiella pneumoniae = test: Antibacterial activity against Klebsiella pneumoniae ATCC BAA-1705 incubated for 16 to 18 hrs by broth microdilution assay; format: functional
# Staphylococcus aureus [12] = test: Synergistic antibacterial activity against Staphylococcus aureus ATCC 29213 assessed as sum of FIC for test compound in presence of meropenem and FIC for meropenem in presence of test compound incubated for 24 hrs by checkerboard titration assay; format: functional
# Staphylococcus aureus [13] = test: Antibacterial activity against methicillin-resistant Staphylococcus aureus NR10192 incubated for 16 to 18 hrs by broth microdilution assay; format: functional
# Staphylococcus aureus [14] = test: Synergistic antibacterial activity against Staphylococcus aureus ATCC 29213 assessed as FIC incubated for 24 hrs in presence of vancomycin by checkerboard titration assay; format: functional
# Staphylococcus aureus [15] = test: Antibacterial activity against vancomycin-resistant Staphylococcus aureus VRS12 incubated for 16 to 18 hrs by broth microdilution assay; format: functional
# Staphylococcus aureus [16] = test: Synergistic antibacterial activity against Staphylococcus aureus ATCC 29213 assessed as FIC incubated for 24 hrs in presence of ceftazidime by checkerboard titration assay; format: functional
# [17] = Cytotoxicity against African green monkey Vero cells assessed as reduction in cell viability after 72 hrs by MTT assay; format: cell-based; details: chlorocebus sabaeus
# Staphylococcus aureus [18] = test: Potentiation of levofloxacin-induced antibacterial activity against Staphylococcus aureus ATCC 29213 assessed as FIC incubated for 24 hrs by checkerboard titration assay; format: functional
# Staphylococcus aureus [19] = test: Synergistic antibacterial activity against Staphylococcus aureus ATCC 29213 incubated for 24 hrs in presence of ceftazidime by checkerboard titration assay; format: functional; details: ATCC 29213, 24 h
# Staphylococcus aureus [20] = test: Potentiation of meropenem-induced antibacterial activity against Staphylococcus aureus ATCC 29213 assessed as meropenem MIC incubated for 24 hrs by checkerboard titration assay (reference value: 0.25 ug/ml); format: functional; details: ATCC 29213, 24 h
# Staphylococcus aureus [21] = test: Synergistic antibacterial activity against Staphylococcus aureus ATCC 29213 assessed as FIC incubated for 24 hrs in presence of minocycline by checkerboard titration assay; format: functional
# Staphylococcus aureus [22] = test: Potentiation of minocycline-induced antibacterial activity against Staphylococcus aureus ATCC 29213 assessed as FIC incubated for 24 hrs by checkerboard titration assay; format: functional
# [23] = Selectivity index, ratio of CC50 for African green monkey Vero cells to MIC for Staphylococcus aureus ATCC 29213; format: toxicity; details: read-out: Selectivity Index
# Staphylococcus aureus [24] = test: Synergistic antibacterial activity against Staphylococcus aureus ATCC 29213 assessed as FIC incubated for 24 hrs in presence of daptomycin by checkerboard titration assay; format: functional
# Escherichia coli = test: Antibacterial activity against Escherichia coli ATCC 25922 incubated for 16 to 18 hrs by broth microdilution assay; format: functional
# Staphylococcus aureus [25] = test: Synergistic antibacterial activity against Staphylococcus aureus ATCC 29213 incubated for 24 hrs in presence of gentamycin by checkerboard titration assay; format: functional; details: ATCC 29213, 24 h
# Staphylococcus aureus [26] = test: Synergistic antibacterial activity against Staphylococcus aureus ATCC 29213 assessed as FIC incubated for 24 hrs in presence of linezolid by checkerboard titration assay; format: functional
# Staphylococcus aureus [27] = test: Antibacterial activity against methicillin-resistant Staphylococcus aureus NR10194 incubated for 16 to 18 hrs by broth microdilution assay; format: functional
# Staphylococcus aureus [28] = test: Synergistic antibacterial activity against Staphylococcus aureus ATCC 29213 assessed as FIC incubated for 24 hrs in presence of rifampicin by checkerboard titration assay; format: functional
# Staphylococcus aureus [29] = test: Synergistic antibacterial activity against Staphylococcus aureus ATCC 29213 assessed as FIC incubated for 24 hrs in presence of gentamycin by checkerboard titration assay; format: functional
# Staphylococcus aureus [30] = test: Synergistic antibacterial activity against Staphylococcus aureus ATCC 29213 incubated for 24 hrs in presence of minocycline by checkerboard titration assay; format: functional; details: ATCC 29213, 24 h
# Staphylococcus aureus [31] = test: Synergistic antibacterial activity against Staphylococcus aureus ATCC 29213 assessed as sum of FIC for test compound in presence of vancomycin and FIC for vancomycin in presence of test compound incubated for 24 hrs by checkerboard titration assay; format: functional
# Staphylococcus aureus [32] = test: Synergistic antibacterial activity against Staphylococcus aureus ATCC 29213 incubated for 24 hrs in presence of meropenem by checkerboard titration assay; format: functional; details: ATCC 29213, 24 h
# Staphylococcus aureus [33] = test: Synergistic antibacterial activity against Staphylococcus aureus ATCC 29213 incubated for 24 hrs in presence of daptomycin by checkerboard titration assay; format: functional; details: ATCC 29213, 24 h
# Staphylococcus aureus [34] = test: Potentiation of ceftazidime-induced antibacterial activity against Staphylococcus aureus ATCC 29213 assessed as ceftazidime MIC incubated for 24 hrs by checkerboard titration assay (reference value: […] ug/ml); format: functional; details: ATCC 29213, 24 h
# Staphylococcus aureus [35] = test: Synergistic antibacterial activity against Staphylococcus aureus ATCC 29213 assessed as sum of FIC for test compound in presence of daptomycin and FIC for daptomycin in presence of test compound incubated for 24 hrs by checkerboard titration assay; format: functional
# Staphylococcus aureus [36] = test: Synergistic antibacterial activity against Staphylococcus aureus ATCC 29213 incubated for 24 hrs in presence of rifampicin by checkerboard titration assay; format: functional; details: ATCC 29213, 24 h
# Staphylococcus aureus [37] = test: Antibacterial activity against vancomycin-resistant Staphylococcus aureus VRS1 incubated for 16 to 18 hrs by broth microdilution assay; format: functional
# Acinetobacter baumannii = test: Antibacterial activity against Acinetobacter baumannii BAA1605 incubated for 16 to 18 hrs by broth microdilution assay; format: functional
# Staphylococcus aureus [38] = test: Antibacterial activity against methicillin-resistant Staphylococcus aureus NR100 incubated for 16 to 18 hrs by broth microdilution assay; format: functional
structure (smiles),measurement,setting,value
N#Cc1ccc(/C=C/c2nc3cccc(F)c3c(=O)n2-c2cccc(O)c2)cc1,MIC,Pseudomonas aeruginosa,> 64 µg/mL
same,MIC,Staphylococcus aureus [1],0.125 µg/mL
same,FIC,Staphylococcus aureus [2],0.0703
same,MIC,Staphylococcus aureus [3],< 0.125 µg/mL
same,MIC,Staphylococcus aureus [4],< 0.125 µg/mL
same,MIC,Staphylococcus aureus [5],0.0019 µg/mL
same,FIC,Staphylococcus aureus [6],0.0078
same,FIC,Staphylococcus aureus [7],0.0037
same,MIC,Staphylococcus aureus [8],0.0009 µg/mL
same,MIC,Staphylococcus aureus [9],0.0078 µg/mL
same,MIC,Staphylococcus aureus [10],0.0078 µg/mL
same,MIC,[11],8 µg/mL
same,MIC,Klebsiella pneumoniae,> 64 µg/mL
same,FIC,Staphylococcus aureus [12],0.0643
same,MIC,Staphylococcus aureus [13],< 0.125 µg/mL
same,FIC,Staphylococcus aureus [14],0.0625
same,MIC,Staphylococcus aureus [15],0.125 µg/mL
same,FIC,Staphylococcus aureus [16],0.0625
same,CC50 at 72 h,[17],5 to 100 µg/mL
same,FIC,Staphylococcus aureus [18],0.0036
same,MIC,Staphylococcus aureus [19],0.0078 µg/mL
same,MIC,Staphylococcus aureus [20],0.0009 µg/mL
same,FIC,Staphylococcus aureus [21],0.0625
same,FIC,Staphylococcus aureus [22],0.0072
same,selectivity ratio,[23],> 83.4
same,FIC,Staphylococcus aureus [24],0.0625
same,MIC,Escherichia coli,> 64 µg/mL
same,MIC,Staphylococcus aureus [25],0.0078 µg/mL
same,FIC,Staphylococcus aureus [26],0.0625
same,MIC,Staphylococcus aureus [27],0.125 to 0.25 µg/mL
same,FIC,Staphylococcus aureus [28],0.0625
same,FIC,Staphylococcus aureus [29],0.0625
same,MIC,Staphylococcus aureus [30],0.0078 µg/mL
same,FIC,Staphylococcus aureus [31],0.0664
same,MIC,Staphylococcus aureus [32],0.0078 µg/mL
same,MIC,Staphylococcus aureus [33],0.0078 µg/mL
same,MIC,Staphylococcus aureus [34],0.0312 µg/mL
same,FIC,Staphylococcus aureus [35],0.0644
same,MIC,Staphylococcus aureus [36],0.0078 µg/mL
same,MIC,Staphylococcus aureus [37],0.25 µg/mL
same,MIC,Acinetobacter baumannii,> 64 µg/mL
same,MIC,Staphylococcus aureus [38],0.5 µg/mL
N#Cc1ccc(/C=C/c2nc3ccccc3c(=O)n2-c2ccc(C(=O)O)c(O)c2)cc1,MIC,Pseudomonas aeruginosa,> 64 µg/mL
same,MIC,Staphylococcus aureus [1],0.125 µg/mL
same,FIC,Staphylococcus aureus [2],0.04
same,MIC,Staphylococcus aureus [3],< 0.125 µg/mL
same,MIC,Staphylococcus aureus [4],< 0.125 µg/mL
same,MIC,Staphylococcus aureus [5],0.0019 µg/mL
same,FIC,Staphylococcus aureus [6],0.007
same,FIC,Staphylococcus aureus [7],0.003
same,MIC,Staphylococcus aureus [8],0.0009 µg/mL
same,MIC,Staphylococcus aureus [9],0.0019 µg/mL
same,MIC,Staphylococcus aureus [10],0.0019 µg/mL
same,MIC,[11],64 µg/mL
same,MIC,Klebsiella pneumoniae,> 64 µg/mL
same,FIC,Staphylococcus aureus [12],0.036
same,MIC,Staphylococcus aureus [13],< 0.125 µg/mL
same,FIC,Staphylococcus aureus [14],0.032
same,MIC,Staphylococcus aureus [15],0.125 µg/mL
same,FIC,Staphylococcus aureus [16],0.032
same,CC50 at 72 h,[17],> 5 µg/mL
same,FIC,Staphylococcus aureus [18],0.003
same,MIC,Staphylococcus aureus [19],0.0019 µg/mL
same,MIC,Staphylococcus aureus [20],0.0009 µg/mL
same,FIC,Staphylococcus aureus [21],0.032
same,FIC,Staphylococcus aureus [22],0.007
same,selectivity ratio,[23],> 167
same,FIC,Staphylococcus aureus [24],0.032
same,MIC,Escherichia coli,> 64 µg/mL
same,MIC,Staphylococcus aureus [25],0.0019 µg/mL
same,FIC,Staphylococcus aureus [26],0.032
same,MIC,Staphylococcus aureus [27],< 0.125 µg/mL
same,FIC,Staphylococcus aureus [28],0.032
same,FIC,Staphylococcus aureus [29],0.032
same,MIC,Staphylococcus aureus [30],0.0019 µg/mL
same,FIC,Staphylococcus aureus [31],0.036
same,MIC,Staphylococcus aureus [32],0.0019 µg/mL
same,MIC,Staphylococcus aureus [33],0.0019 µg/mL
same,MIC,Staphylococcus aureus [34],0.0312 µg/mL
same,FIC,Staphylococcus aureus [35],0.036
same,MIC,Staphylococcus aureus [36],0.0019 µg/mL
same,MIC,Staphylococcus aureus [37],0.125 to 0.25 µg/mL
same,MIC,Acinetobacter baumannii,> 64 µg/mL
same,MIC,Staphylococcus aureus [38],0.125 to 0.25 µg/mL
